Measured values published in patent US8999956B2, “N-[(het)arylalkyl)] pyrazole(thio)carboxamides and their heterosubstituted analogues” (Bayer Intellectual Property GmbH, priority 2010, dated 2015).

Assay: log P by HPLC on reversed-phase column (EEC Directive 79/831 Annex V.A8)
Type: physicochemical
Experimental: In table 1, the log P values were determined in accordance with EEC Directive 79/831 Annex V.A8 by HPLC (High Performance Liquid Chromatography) on a reversed-phase column (C18), using the method described below: Temperature: 40° C.; […]

logP	Compound
4.71	CC(C)N(CCOc1c(Cl)cc(Cl)cc1Cl)C(=O)c1c(C(F)F)nn(C)c1Cl [Example 208]
5.08	Cn1nc(C(F)F)c(C(=O)N(CCOc2c(Cl)cc(Cl)cc2Cl)C2CCCC2)c1F [Example 209]
4.20	CC(COc1c(Cl)cc(Cl)cc1Cl)NC(=O)c1c(C(F)F)nn(C)c1Cl (stereo not shown) [Example 211]
3.85	CCC(COc1cccc2ccccc12)NC(=O)c1c(C(F)F)nn(C)c1Cl (stereo not shown) [Example 223]
2.57	CN(CC(=O)OCc1ccccc1)C(=O)c1c(C(F)F)nn(C)c1Cl [Example 228]
1.76	CN(CCN(C)C(=O)c1c(C(F)F)nn(C)c1Cl)C(=O)c1ccccc1 [Example 231]
2.86	CN(CCC(=O)Nc1ccc(Cl)c(Cl)c1)C(=O)c1c(C(F)F)nn(C)c1Cl [Example 233]
3.11	CC(CSCc1ccco1)N(C(=O)c1c(C(F)F)nn(C)c1F)C1CC1 (stereo not shown) [Example 236]
3.27	CC(CSCc1ccco1)N(C(=O)c1c(C(F)F)nn(C)c1Cl)C1CC1 (stereo not shown) [Example 237]
2.26	Cn1nc(C(F)F)c(C(=O)NC2CCCC2Sc2ncccn2)c1Cl (stereo not shown) [Example 257]
2.84	CN(CC=Cc1ccccc1)C(=O)c1c(C(F)F)nn(C)c1Cl [Example 261]
3.17	CCN(CC=Cc1ccccc1)C(=O)c1c(C(F)F)nn(C)c1Cl [Example 263]
3.83	Cn1nc(C(F)F)c(C(=O)N(CC#Cc2ccccc2)C(C)(C)C)c1F [Example 267]
3.73	Cn1nc(C(F)F)c(C(=O)N(CC#Cc2ccccc2)C2CCCC2)c1F [Example 273]
3.85	Cn1nc(C(F)F)c(C(=O)N(CC#Cc2cc3ccccc3s2)C2CC2)c1F [Example 276]
2.14	Cn1nc(C(F)F)c(C(=O)NCC#Cc2ccco2)c1F [Example 280]
1.40	COCCCCNC(=O)c1c(C(F)F)nn(C)c1F [Example 305]
4.39	CCCCC1CCCC1NC(=S)c1c(C(F)F)nn(C)c1F (stereo not shown) [Example 308]
5.01	Cn1nc(C(F)F)c(C(=S)NC2CCCC2CCC(C)(C)C)c1F (stereo not shown) [Example 321]
4.96	CC1CC(N(C(=S)c2c(C(F)F)nn(C)c2F)C2CC2)CC(C)(C)C1 (stereo not shown) [Example 323]
4.86	CCCCC1CCCCC1NC(=S)c1c(C(F)F)nn(C)c1F (stereo not shown) [Example 332]
4.16	C=CCC1CCCCC1N(C(=O)c1c(C(F)F)nn(C)c1Cl)C1CC1 (stereo not shown) [Example 347]

Continued, compound first:

Compound	logP
Cn1nc(C(F)F)c(C(=O)N(CCOc2c(Cl)cc(Cl)cc2Cl)C2COC2)c1Cl [Example 207]	3.55
CC(COc1c(Cl)cc(Cl)cc1Cl)NC(=O)c1c(C(F)F)nn(C)c1F (stereo not shown) [Example 212]	3.92
CN(CC(=O)OCc1ccccc1)C(=O)c1c(C(F)F)nn(C)c1F [Example 226]	2.44
CC(C)C(C(=O)OCc1ccccc1)N(C)C(=O)c1c(C(F)F)nn(C)c1F (stereo not shown) [Example 227]	3.35
CC(C)C(C(=O)OCc1ccccc1)N(C)C(=O)c1c(C(F)F)nn(C)c1Cl (stereo not shown) [Example 229]	3.48
CN(CCN(C)C(=O)c1c(C(F)F)nn(C)c1F)C(=O)c1ccccc1 [Example 230]	1.66
CN(CCC(=O)Nc1ccc(Cl)c(Cl)c1)C(=O)c1c(C(F)F)nn(C)c1F [Example 232]	2.71
CCCN(CCCOc1c(C)cc(C)cc1C)C(=O)c1c(C(F)F)nn(C)c1Cl [Example 234]	4.39
CCCN(CCCOc1c(C)cc(C)cc1C)C(=O)c1c(C(F)F)nn(C)c1F [Example 235]	4.27
CC(CSCc1ccco1)N(C)C(=O)c1c(C(F)F)nn(C)c1F (stereo not shown) [Example 238]	2.49
CC(CSCc1ccco1)N(C)C(=O)c1c(C(F)F)nn(C)c1Cl (stereo not shown) [Example 239]	2.64
CN(C(=O)c1c(C(F)F)nn(C)c1F)C1CCCCC1Cc1ccccc1 (stereo not shown) [Example 253]	3.72
CN(C(=O)c1c(C(F)F)nn(C)c1Cl)C1CCCCC1Cc1ccccc1 (stereo not shown) [Example 254]	3.87
CN(CC=Cc1ccccc1)C(=O)c1c(C(F)F)nn(C)c1F [Example 262]	2.73
CCN(CC=Cc1ccccc1)C(=O)c1c(C(F)F)nn(C)c1F [Example 264]	3.02
COCCN(CC=Cc1ccccc1)C(=O)c1c(C(F)F)nn(C)c1Cl [Example 265]	3.02
COCCN(CC=Cc1ccccc1)C(=O)c1c(C(F)F)nn(C)c1F [Example 266]	2.86
Cn1nc(C(F)F)c(C(=O)N(CC#Cc2ccccc2)C(C)(C)C)c1Cl [Example 268]	3.96
CN(CC#Cc1ccccc1)C(=O)c1c(C(F)F)nn(C)c1F [Example 269]	2.78
CN(CC#Cc1ccccc1)C(=O)c1c(C(F)F)nn(C)c1Cl [Example 270]	2.92
Cn1nc(C(F)F)c(C(=O)N(CC#Cc2ccccc2)C2CC2)c1Cl [Example 272]	3.33

Compound	logP
Cn1nc(C(F)F)c(C(=O)N(CC#Cc2ccccc2)C2CCCC2)c1Cl [Example 274]	3.92
Cn1nc(C(F)F)c(C(=O)N(CC#Cc2cc3ccccc3o2)C2CC2)c1F [Example 275]	3.55
Cn1nc(C(F)F)c(C(=O)NCC#Cc2cc3ccccc3s2)c1F [Example 277]	3.19
CN(CC#Cc1cc2ccccc2s1)C(=O)c1c(C(F)F)nn(C)c1F [Example 278]	3.39
Cn1nc(C(F)F)c(C(=O)N(CC#Cc2ccco2)C2CC2)c1F [Example 279]	2.70
CN(CC#Cc1ccco1)C(=O)c1c(C(F)F)nn(C)c1F [Example 281]	2.32
Cn1nc(C(F)F)c(C(=O)N(CC#Cc2cccs2)C2CC2)c1F [Example 282]	3.00
Cc1ccsc1C#CCN(C(=O)c1c(C(F)F)nn(C)c1F)C1CC1 [Example 283]	3.31
Cn1nc(C(F)F)c(C(=O)NC(C)(C)C#Cc2ccc(C#N)cc2)c1F [Example 284]	2.82
Cc1ccc2sc(C#CCN(C(=O)c3c(C(F)F)nn(C)c3F)C3CC3)cc2c1 [Example 285]	4.26
Cc1ccc(C#CCN(C(=O)c2c(C(F)F)nn(C)c2F)C2CC2)s1 [Example 286]	3.37
CC(CC[Si](C)(C)C)N(C(=O)c1c(C(F)F)nn(C)c1F)C1CC1 (stereo not shown) [Example 304]	4.39
CCCCCCC1CCCCC1NC(=S)c1c(C(F)F)nn(C)c1F (stereo not shown) [Example 327]	5.81
CC(C)CC(C)C1CCCCC1NC(=S)c1c(C(F)F)nn(C)c1Cl (stereo not shown) [Example 336]	5.42
CCCC1CCCCC1NC(=S)c1c(C(F)F)nn(C)c1F (stereo not shown) [Example 345]	4.21
C=CCC1CCCCC1N(C(=O)c1c(C(F)F)nn(C)c1F)C1CC1 (stereo not shown) [Example 346]	3.94
Cn1nc(C(F)F)c(C(=O)NC2CCCCC2C(C)(C)C)c1Cl (stereo not shown) [Example 348]	4.15
Cn1nc(C(F)F)c(C(=S)NC2CCCCC2CCC(C)(C)C)c1Cl (stereo not shown) [Example 356]	5.60
CCC1(C)CC(NC(=O)c2c(C(F)F)nn(C)c2Cl)CC(C)(C)C1 (stereo not shown) [Example 362]	4.44
CCC1(C)CC(NC(=O)c2c(C(F)F)nn(C)c2F)CC(C)(C)C1 (stereo not shown) [Example 363]	4.23
Cn1nc(C(F)F)c(C(=O)N(C2CC2)C2CCCC2C2CCCC2)c1Cl (stereo not shown) [Example 369]	4.83
